# Measured values: PMC9324262, “Selective CDK9 Inhibition by Natural Compound Toyocamycin in Cancer Cells” (Cancers, 2022)
# What was measured:
# [1] = target: T1, CDK4/Cyclin D3 (Homo sapiens, UniProt P11802); experiment: in vitro kinase assay CDK4/Cyclin D3 (Kinase-Glo Plus); assay type: biochemical
# T1 construct: purchased BPS Bioscience
# Description: The in vitro enzymatic assays were conducted at BPS Bioscience. CDK9/Cyclin T1, CDK2/Cyclin 2A, CDK4/Cyclin D3, and CDK6/Cyclin D3 enzymatic activities were tested with an ATP Kinase-Glo Plus Luminescence kinase assay kit (Promega, V6073, Madison, WI, USA), while the CDK7/Cyclin H/MAT1 activities were tested using ADP-Glo Kinase (Promega, V6930). These assays measure kinase activity by quantifying the amount of ATP or ADP remaining in solution following a kinase reaction. The luminescent signal from the assay is correlated to the amount of ATP or ADP present and is inversely correlated to the kinase activity. The compounds were diluted to 10% DMSO and were added to the reaction so that the final concentration of DMSO was 1% in all reactions. All enzymatic reactions were conducted at 30 °C for 60 min. […] After the enzymatic reaction, the luminescence signal was measured using a BioTek Synergy 2 microplate reader (Agilent, Santa Clara, CA, USA). Kinase activity assays were performed in duplicate at each concentration and the percent of kinase activity was calculated as a ratio of luminescence intensities in the absence or in presence of the compounds. […] IC50 values were determined by the concentration causing a half-maximal percent activity (BPS Bioscience, San Diego, CA, USA).
# [2] = system: YB5 cells; experiment: GFP reactivation in YB5 cell-based system (flow cytometry); parameters: species or system human
# Description: YB5 cells are derived from SW48 cells (human colon cancer cell line), and contain a single insertion of a DNA hypermethylated cytomegalovirus (CMV) promoter driving the green fluorescent protein (GFP) gene, as previously described. YB5 cells are cultured in L-15 medium supplemented with 10% fetal bovine serum and grown in log-phase in 1% CO2 atmosphere. YB5 cells were authenticated by DNA fingerprinting prior to drug screening and validation experiments. GFP expression in YB5 cells is silenced in >99.9% of the cells due to the CMV promoter DNA hypermethylation and repressive chromatin marks around the transcriptional start site. The human HCT116 colon cancer-derived GFP-reporter system, comprising a GFP gene under the control of an endogenously hypermethylated SFRP1 gene promoter, was kindly provided by Dr. Stephen Baylin (Johns Hopkins University). These cells are cultured in McCoy’s 5A medium supplemented with 10% fetal bovine serum and grown in log-phase in 5% CO2 atmosphere at 37 °C. The 451-Lu-BR melanoma cells were a kind gift from Dr. Raza Zaidi (Fels Institute for Cancer Research and Molecular Biology, Temple University School of Medicine, Philadelphia). These cells are derived from parental 451-LU cells that have acquired resistance to BRAF inhibitors. The 451-Lu-BR cells were cultured at 37 °C in Dulbecco’s Modified Eagle Medium (DMEM) supplemented with 10% fetal bovine serum, L-alanyl-L-glutamine (2 mM), and gentamycin (50 µg/mL) in 5% CO2 at 37 °C. The natural drug library (natural product set II) containing 120 compounds was obtained from the National Cancer Institute Developmental Therapeutics Program. Natural compounds were dissolved in DMSO (10 mM) in 96-well plates that were kept at −80°C until use. Toyocamycin, analogues of toyocamycin (sangivamycin, tubercidin, 3-deaza-adenosine, DZNep), CDK inhibitors, and epigenetic drugs (decitabine, SAHA, trichostatin A, depsipeptide) were purchased from Sigma-Aldrich (St. Louis, MO, USA,) for validation studies, dissolved in DMSO, and kept at −80 °C until use.
# YB5 cells were seeded at 30,000 cell/mL in 96-well plates (6000 cells/well) and treated 3 days after seeding. Cells were exposed to 120 natural compounds in 5 different experimental conditions: (1) 72 h exposure at 10 µM followed by 24 h recovery period prior to analysis; (2) 24 h treatment at 50 µM prior to analysis; (3) 72 h exposure at 10 µM of the compound library followed by 24 h treatment with HDAC inhibitor trichostatin A (200 nM) prior to analysis; (4) 72 h exposure at 10 µM in simultaneous combination with decitabine (50 nM) followed by 24 h recovery period prior to analysis; and (5) 72 h treatment with decitabine (50 nM) followed by 24 h exposure with the natural compound library (50 µM) prior to analysis. The scheme of different dose schedules is shown Figure S1A. During screening, drugs and cell culture media were replaced every day. To ensure the quality and the reproducibility of the screen, each 96-well plate was designed to include 80 natural compounds, 4 untreated wells, 4 wells treated with decitabine (50 nM, 72 h), 4 wells treated with trichostatin A (200 nM, 24 h), and their combination with decitabine (50 nM, 72 h) followed by trichostatin A treatment (200 nM, 24 h) prior to flow cytometry analysis. The percentage of GFP-expressing cells in control wells (untreated or treated with known epigenetic drugs) was measured and was reproducible between different plates.
# After treatment, YB5 cells were trypsinized for 15 min and resuspended in L-15 media containing propidium iodide (PI) to stain dead cells. GFP expression and PI staining were quantified by a BD LSR II flow cytometer (BD Biosciences, San Jose, CA, USA). A maximum of 10,000 cells was analyzed per well. Validations were performed using a Millipore Guava flow cytometer (EMD, Millipore, Burlington, MA, USA). […]
# [3] = system: CMV promoter in YB5 cells; experiment: DNA methylation by bisulfite pyrosequencing, CMV promoter; assay type: cell-based, human; conditions: 0.05–50 µM, 72 h
# Description: We analyzed DNA methylation levels on the CMV promoter region and LINE-1 repeated elements (as a marker of global DNA methylation level). After DNA extraction and bisulfite conversion, PCR amplification of regions of interest and pyrosequencing were achieved as previously described.
# T1 sequence (P11802 whole entry): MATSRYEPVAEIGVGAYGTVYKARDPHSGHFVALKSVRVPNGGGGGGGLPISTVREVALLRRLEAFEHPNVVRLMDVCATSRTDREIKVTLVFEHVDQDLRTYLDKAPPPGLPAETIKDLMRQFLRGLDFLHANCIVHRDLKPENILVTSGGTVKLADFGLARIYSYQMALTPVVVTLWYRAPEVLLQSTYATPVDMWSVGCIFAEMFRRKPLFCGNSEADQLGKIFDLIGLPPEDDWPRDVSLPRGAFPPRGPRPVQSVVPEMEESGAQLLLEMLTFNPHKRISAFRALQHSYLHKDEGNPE
# T1 sequence (P30281 whole entry partner): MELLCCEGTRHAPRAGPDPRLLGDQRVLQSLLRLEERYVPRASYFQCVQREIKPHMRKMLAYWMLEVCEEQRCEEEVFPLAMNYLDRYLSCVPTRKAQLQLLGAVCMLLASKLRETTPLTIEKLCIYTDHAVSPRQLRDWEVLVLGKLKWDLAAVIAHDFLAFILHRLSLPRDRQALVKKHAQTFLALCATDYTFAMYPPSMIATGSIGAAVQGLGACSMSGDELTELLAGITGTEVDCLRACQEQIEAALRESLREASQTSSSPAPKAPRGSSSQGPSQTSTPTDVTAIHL
smiles,measurement,setting,value
"N#Cc1cn([C@@H]2O[C@H](CO)[C@@H](O)[C@H]2O)c2ncnc(N)c12 [toyocamycin, 7-Deaza-7-cyanoadenosine]",IC50,[1],15 µM
same,GFP-expressing YB5 cells,"[2]; 250 nM, 48 h",about 10%
same,YB5 cells expressing GFP,"[2]; 5 µM, 72 h",More than 60%
same,"GFP expression, % of YB5 cells","[2]; sequential combination with decitabine, toyocamycin 0.5–5 µM",up to 40%
same,"GFP-expressing cells with CDK9 overexpression (HA-CDK9, FLAG-CDK9)","[2]; toyocamycin 250 nM 48 h, MC180295 500 nM 48 h",reduction in the number of GFP-expressing cells
same,DNA methylation on CMV promoter,[3],no changes in DNA methylation
